pIC50: −log10 of the molar value.
Columns and labels:
Type in all cases: biochemical
[1] = test system: Type IV PDE isolated from bovine tracheal smooth muscle; assay: Type IV PDE activity, hydrolysis of [3H]-cyclic AMP; conditions: bovine tracheal smooth muscle enzyme; 0.2 μM cyclic AMP
Description: The Type IV PDE is isolated from bovine tracheal smooth muscle using a procedure similar to that previously described by Silver, P. J., et al.: Eur. J. Pharmacol. 150:85, 1988.(1). Eiiefly, smooth muscle from bovine trachea is minced and homogenized using a polytron in 10 volumes of an extraction buffer containing 10 mM Tris-acetate (pH 7.5), 2 mM magnesium chloride, 1 mM dithiothreitol and 2,000 units/ml of aprotinin. This and all subsequent procedures are performed at 0-4EC. The homogenate is sonicated and then centrifuged at 48,000×g for 30 minutes. The resulting supernatant is applied to a DEAE Trisacryl M column previously equilibrated with sodium acetate and dithiothreitol. After applications of the sample, the column is washed with sodium acetate/dithiothreitol, after which the different forms of PDE are eluted from the column using a linear Tris-HCl/NaCl gradient. Fractions containing Type IV PDE are collected, dialyzed and concentrated to 14% of the original volume. The concentrated fractions are diluted to 50% with ethylene glycol and stored at −20EC.
Enzyme activity is assessed by measuring the hydrolysis of [^3H]-cyclic AMP, as described by Thompson, W. J., et al.: Adv. Cyclic Nucleotide Res. 10:69, 1979. The cyclic AMP concentration used in this assay is 0.2 μM, which approximates to the Km value. Protein concentration is adjusted to ensure that no more than 15% of the available substrate is hydrolyzed during the incubation period.
All test compounds are dissolved in dimethyl sulfoxide (final concentration of 2.5%). This concentration of dimethyl sulfoxide inhibits enzyme activity by approximately 10%.
The compounds are tested over concentration range: 0.1, 1, 10, 100 uM (n=1), and IC50 determinations are made using 5 appropriate concentrations (n=2).

[2] = target: T1, Type III PDE isolated from human platelets (Homo sapiens, UniProt Q14432); assay: Type III PDE activity, hydrolysis of [3H]-cyclic AMP; conditions: human platelet enzyme; 0.2 μM cyclic AMP
T1 construct: Fractions containing PDE III activity are pooled and dialyzed; from tissue; host or cells: human platelets (100,000 x g supernatant, DEAE-Trisacryl M fraction)
Description: After application of the sample, the column is washed with several bed volumes of buffer B, after which the different forms of PDE are eluted from the column using two successive linear NaCl gradients (0.05-0.15 M, 300 ml total; 0.15-0.40 M, 200 ml total). Five milliliter fractions are collected and assayed for cyclic AMP and cyclic GMP PDE activity.

[3] = target: T2, Type V PDE isolated from platelets (Homo sapiens, UniProt O76074); assay: Type V PDE activity, hydrolysis of [3H]-cyclic GMP; conditions: platelet enzyme; 0.2 uM cyclic GMP
T2 construct: Fractions that contain PDE V are pooled and dialyzed overnight; from tissue; host or cells: platelets (supernatant, DEAE-Trisacryl M fraction)
Description: Briefly, 1-2 units of platelets are suspended in an equal volume of buffer A (20 mM Tris-HCl, pH 7.5, containing 2 mM magnesium acetate, 1 mM dithiothreitol, and 5 mM Na2EDTA) using a polytron. The proteinase inhibitor phenylmethylsulfonyl fluoride (PMSF) are also included in this buffer at a final concentration of 200 uM. […] The homogenate is then centrifuged at 100,000 rpm for 60 minutes. The supernatant is then removed and filtered through four layers of gauze and applied to a DEAE-Trisacryl M column. The column is washed with several bed volumes of buffer B (20 mM Tris-HCl, pH 7.5, containing 2 mM magnesium acetate, 1 mM diothiothreitol, and […] PMSF) and eluted by two successive linear NaCl gradients (0.05-0.15 M, 300 ml total; 0.15-0.40 M, 200 ml total). Five ml fractions are collected and assayed for cyclic AMP and cyclic GMP PDE activity. Fractions that contain PDE V are pooled and dialyzed overnight against 4 L of buffer C (20 mM Tris-HCl, pH 7.5, containing 2 mM magnesium acetate and proteinase inhibitors). […] PDE V can typically be retained for up to four weeks with little or no loss of activity.
The reference Type V PDE inhibitor zaprinast is evaluated with each assay.

T1 sequence (Q14432 whole entry): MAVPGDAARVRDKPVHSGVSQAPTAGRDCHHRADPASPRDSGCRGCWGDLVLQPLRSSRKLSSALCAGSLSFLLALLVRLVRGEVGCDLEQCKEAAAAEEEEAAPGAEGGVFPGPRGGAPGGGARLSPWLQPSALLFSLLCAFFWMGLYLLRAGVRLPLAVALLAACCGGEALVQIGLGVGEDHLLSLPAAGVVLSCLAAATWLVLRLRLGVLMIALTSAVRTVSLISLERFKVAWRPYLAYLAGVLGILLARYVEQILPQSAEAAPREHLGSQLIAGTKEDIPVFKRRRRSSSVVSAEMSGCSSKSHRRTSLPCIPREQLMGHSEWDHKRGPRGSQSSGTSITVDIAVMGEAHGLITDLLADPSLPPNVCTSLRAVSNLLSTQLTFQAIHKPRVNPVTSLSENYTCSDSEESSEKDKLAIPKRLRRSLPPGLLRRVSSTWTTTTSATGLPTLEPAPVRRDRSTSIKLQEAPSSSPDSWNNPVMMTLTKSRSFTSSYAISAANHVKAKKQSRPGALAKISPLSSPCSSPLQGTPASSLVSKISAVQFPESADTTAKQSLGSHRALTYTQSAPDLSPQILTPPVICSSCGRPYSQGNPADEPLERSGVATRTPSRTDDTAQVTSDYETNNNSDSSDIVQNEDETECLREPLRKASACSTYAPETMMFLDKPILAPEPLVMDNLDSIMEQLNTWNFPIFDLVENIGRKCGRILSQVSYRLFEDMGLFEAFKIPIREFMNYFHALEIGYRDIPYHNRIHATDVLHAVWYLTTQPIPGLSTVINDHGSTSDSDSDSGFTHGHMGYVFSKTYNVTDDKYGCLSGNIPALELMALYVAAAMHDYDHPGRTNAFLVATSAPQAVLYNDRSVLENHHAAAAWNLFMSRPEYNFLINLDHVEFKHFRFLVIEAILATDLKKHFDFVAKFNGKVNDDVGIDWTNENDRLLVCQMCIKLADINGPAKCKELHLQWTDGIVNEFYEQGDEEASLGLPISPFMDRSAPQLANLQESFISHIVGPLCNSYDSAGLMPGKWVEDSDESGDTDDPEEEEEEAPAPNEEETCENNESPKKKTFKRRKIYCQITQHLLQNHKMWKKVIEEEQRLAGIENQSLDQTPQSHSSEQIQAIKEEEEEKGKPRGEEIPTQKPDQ

Row | Structure (SMILES) | pIC50 [1] | pIC50 [2] | pIC50 [3]
1 | COc1ccc(C2CNC(=O)C2)cc1OC1CCCC1 (centres unmarked) [Rolipram, reference compound] | 5.43 |  | 
2 | CC(C)(C)c1cc(Cc2nc3cc(Cl)cc(C#CCO)c3o2)cc(C(C)(C)C)c1O [Example 4, 3-(5-chloro-2-(4-hydroxy-3,5-bis((1,1-dimethyl)ethyl)benzyl)benzoxazol-7-yl)prop-2-yn-1-ol] | 6.38 | < 3.52 | 4.71
3 | Cn1c(=O)c2[nH]cnc2n(C)c1=O [Theophylline, reference compound] | 3.49 |  | 

The next lines start with the values.

Row | pIC50 [1] | pIC50 [2] | pIC50 [3] | Structure (SMILES)
4 | 6.15 |  |  | CC(C)(C)c1cc(Cc2nc3cccc(C#Cc4ccccn4)c3o2)cc(C(C)(C)C)c1O [Example 2]
5 | 7.85 |  |  | CC(C)(C)c1cc(Cc2nc3cc(Cl)cc(C#Cc4nccs4)c3o2)cc(C(C)(C)C)c1O [Example 3, 5-chloro-2-(3,5-di-t-butyl-4-hydroxy-benzyl)-7-(2-(2-thiazolyl)-ethynyl)-benzoxazole]
6 | 7.89 |  |  | CC(C)(C)c1cc(Cc2nc3cc(Cl)cc(C#Cc4ccccn4)c3o2)cc(C(C)(C)C)c1O [Example 1, 5-chloro-2-(3,5-di-t-butyl-4-hydroxy-benzyl)-7-(2-(2-pyridyl)-ethynyl)-benzoxazole]

— US6365606B1, “6,5-fused aromatic ring systems having enhanced phosphodiesterase IV inhibitory activity” (Euro-Celtique, S.A., priority 1996, dated 2002)
